Data set [1] has as its target Glutamate [NMDA] receptor. The experiment in a line: Binding affinity to NMDAR (unknown origin) assessed as inhibition constant by [3H]MK-801 binding assay. In kind it is protein-complex assay, Homo sapiens.
In data set [2] the target is T1, Protein deacetylase HDAC6 (Homo sapiens, UniProt Q9UBN7).
T1 sequence (Q9UBN7 whole entry): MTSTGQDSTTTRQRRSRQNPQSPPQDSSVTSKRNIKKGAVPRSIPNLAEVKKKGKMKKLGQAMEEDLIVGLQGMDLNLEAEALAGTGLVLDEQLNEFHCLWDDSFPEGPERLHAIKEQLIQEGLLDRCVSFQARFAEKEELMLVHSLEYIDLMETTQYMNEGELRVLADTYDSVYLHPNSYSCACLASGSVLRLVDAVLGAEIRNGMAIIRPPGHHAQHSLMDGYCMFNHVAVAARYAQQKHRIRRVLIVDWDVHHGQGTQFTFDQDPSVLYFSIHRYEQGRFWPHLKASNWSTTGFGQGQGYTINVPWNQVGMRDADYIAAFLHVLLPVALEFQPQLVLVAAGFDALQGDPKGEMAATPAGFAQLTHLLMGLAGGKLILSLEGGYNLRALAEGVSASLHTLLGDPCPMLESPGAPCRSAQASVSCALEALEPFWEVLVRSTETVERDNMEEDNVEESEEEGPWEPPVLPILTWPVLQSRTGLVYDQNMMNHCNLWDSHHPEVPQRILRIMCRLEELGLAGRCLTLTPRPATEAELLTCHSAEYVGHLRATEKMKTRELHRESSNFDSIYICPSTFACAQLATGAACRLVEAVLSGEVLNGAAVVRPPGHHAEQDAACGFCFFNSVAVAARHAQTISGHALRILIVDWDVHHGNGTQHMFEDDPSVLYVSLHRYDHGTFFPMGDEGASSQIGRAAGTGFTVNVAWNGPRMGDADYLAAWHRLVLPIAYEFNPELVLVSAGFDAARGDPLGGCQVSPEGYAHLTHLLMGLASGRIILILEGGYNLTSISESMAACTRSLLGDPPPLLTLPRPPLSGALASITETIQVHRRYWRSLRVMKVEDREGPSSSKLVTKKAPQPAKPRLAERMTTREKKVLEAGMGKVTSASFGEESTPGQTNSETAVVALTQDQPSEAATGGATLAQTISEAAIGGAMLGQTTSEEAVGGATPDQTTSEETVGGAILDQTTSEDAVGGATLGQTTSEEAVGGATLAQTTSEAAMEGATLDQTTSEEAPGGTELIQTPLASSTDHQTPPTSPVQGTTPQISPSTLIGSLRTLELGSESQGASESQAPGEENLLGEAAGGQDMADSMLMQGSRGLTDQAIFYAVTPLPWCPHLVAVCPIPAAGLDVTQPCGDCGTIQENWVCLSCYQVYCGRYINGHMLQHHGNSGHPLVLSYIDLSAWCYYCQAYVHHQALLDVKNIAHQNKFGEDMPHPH
The experiment in a line: Inhibition of HDAC6 in human HeLa cells measured after 2 hrs by Western blot analysis. It counts as cell-based. (In western blotting, separated proteins are transferred to a membrane and probed.)

Data set [3] is described as follows: Half life in mouse plasma measured for 5 to 60 mins by HPLC/MS/MS analysis. The following applies: time 5-60 min. In kind it is ADME, cell-free.
Data set [4] is described as follows: in vivo. The following applies: mouse, brain and plasma.
For data set [5], the target named is T1, Protein deacetylase HDAC6. The experiment in a line: Inhibition of HDAC6 in human SH-SY5Y cells measured after 2 hrs by Western blot analysis. It counts as cell-based.
Data set [6] concerns the target High affinity cGMP-specific 3',5'-cyclic phosphodiesterase 9A (Homo sapiens, UniProt O76083). Nature of the data set: Inhibition of PDE9 in human SH-SY5Y cells measured after 2 hrs by Western blot analysis. In kind it is cell-based.
Data set [7] has as its target T1, Protein deacetylase HDAC6. Nature of the data set: Inhibition of HDAC6 (unknown origin) by microtiter plate reader analysis.

The source of these data is ChEMBL document CHEMBL5150006, “Inhibition of Histone Deacetylase 6 (HDAC6) as a therapeutic strategy for Alzheimer's disease: A review (2010-2020)” (Eur J Med Chem, 2021).

Chain of High affinity cGMP-specific 3',5'-cyclic phosphodiesterase 9A (O76083 whole entry): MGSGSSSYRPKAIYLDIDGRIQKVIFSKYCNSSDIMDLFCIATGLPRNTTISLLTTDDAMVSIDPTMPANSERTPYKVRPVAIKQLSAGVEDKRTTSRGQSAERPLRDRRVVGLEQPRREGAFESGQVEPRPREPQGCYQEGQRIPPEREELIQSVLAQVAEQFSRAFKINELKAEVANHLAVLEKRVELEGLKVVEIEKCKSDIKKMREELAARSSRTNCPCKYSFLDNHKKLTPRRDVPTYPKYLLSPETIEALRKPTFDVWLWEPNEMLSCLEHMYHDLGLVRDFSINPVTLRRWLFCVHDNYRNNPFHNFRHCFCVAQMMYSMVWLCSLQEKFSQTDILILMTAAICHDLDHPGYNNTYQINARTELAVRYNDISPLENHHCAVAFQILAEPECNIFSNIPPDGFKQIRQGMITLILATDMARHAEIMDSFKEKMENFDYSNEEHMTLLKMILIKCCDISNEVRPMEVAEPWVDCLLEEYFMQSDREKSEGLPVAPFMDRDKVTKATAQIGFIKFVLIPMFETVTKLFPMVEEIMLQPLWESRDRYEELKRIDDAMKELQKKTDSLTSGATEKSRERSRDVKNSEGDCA

As a reminder, the Ki is a dissociation constant, usually derived from enzyme kinetics or from competition with a known ligand. In general, IC50 refers to the concentration needed to halve the response being measured. Read a low IC50 as higher potency. For the molecule `CC12CC3CC(C)(C1)CC(NC(=O)/C=C/c1ccc(C(=O)NO)cc1)(C3)C2`, the Ki in data set [1] is 590 nM. This molecule yielded a 50% inhibitory concentration (IC50) in data set [2] of 180 nM.
Broadly, the half-life is how long it takes for the measured level to halve. Low readings indicate rapid decline, high ones slow decline. In data set [3], `O=C(NO)c1cnc(NC2(c3ccccc3)CC2)nc1` had a half-life of 12 min.
As a reminder, the Kp is the ratio of the level in a tissue or fluid to that in plasma or blood. For `CN1CCc2c(c3ccccc3n2Cc2ccc(C(=O)NO)cc2)C1` [TUBASTATIN A], the Kp in data set [4] came out at 1.22.
`O=C(NO)c1cnc(NC2(c3cccc(F)c3)CCCCC2)nc1`: in data set [3], the half-life was 30 min. Besides, the concentration ratio (Kp) in data set [4] turned out to be 1.26.
Consider `C[C@@H]1CN(Cc2ccc(C(=O)NO)cc2)C[C@H]1c1nc2c(cnn2C2CCCC2)c(=O)[nH]1`, for which the IC50 in data set [5] amounted to 107 nM; in data set [6], 40 nM.
The molecule `CCN(CC)c1ccc(C(=O)NCCCCCCC(=O)NO)cc1` came in with an IC50 in data set [7] of 0.0095 nM.
